Results on two molecules are retold here after paper PMC3131519 (Frontiers in Microbiology, 2011).

Data set [1] has as its system P. aeruginosa (ATCC 19429). In words: Galleria mellonella infection by P. aeruginosa, treatment survival. Format: in vivo. The conditions noted are these: 1 × 10^3 CFU P. aeruginosa, single dose 5 μg ciprofloxacin.
Another data set relates to red blood cells. The conditions noted are these: 100 μg/ml peptide; ref de Latour et al., 2010; Dean et al., 2011; cited from earlier work.

For the molecule `O=C(O)c1cn(C2CC2)c2cc(N3CCNCC3)c(F)cc2c1=O` [ciprofloxacin], in data set [1], the “effectiveness at prolonging survival vs infected control, in words” value was “effective”.
For the molecule ATRA, the hemolysis result with red blood cells is “no significant hemolysis”.
